From ChEMBL document CHEMBL3351698, “Melleolides induce rapid cell death in human primary monocytes and cancer cells” (Bioorg Med Chem, 2014)
Calls of active or inactive are those of the source. No cut-off for these calls is given here. Starred links: 1 amine or outer side, 2 acyl side, 3 side chain; linkers in the order of their positions; H or OH if unused. Positions of bridges follow the written chain, without caps; N, C: chain ends. Non-standard residues stand in square brackets, D forms with d. Residues, ends and D or L forms follow the SMILES beside them. Chains are numbered I, II in the order given. Actinocin(9to1) = Cc1c2oc3c(C)ccc(C(=O)[*:1])c3nc-2c(C(=O)[*:2])c(N)c1=O; NMeV = CN[C@H](C(=O)O)C(C)C; Sar = CNCC(=O)O

What was measured:
Monocyte [1] = assay: Cytotoxicity against human primary monocytes up to 1 uM after 24 hrs by MTT assay; format: functional
MONO-MAC-6 = assay: Cytotoxicity against human MONO-MAC-6 cells after 24 hrs by MTT assay; format: functional, cell-based; conditions: MONO-MAC-6, 24 h
THP-1 = assay: Cytotoxicity against human THP1 cells after 24 hrs by MTT assay; format: functional, cell-based; conditions: THP-1, 24 h
K562 = assay: Cytotoxicity against human K562 cells after 24 hrs by MTT assay; format: functional, cell-based; conditions: K562, 24 h
HeLa [2] = assay: Cytotoxicity against human HeLa cells after 24 hrs by MTT assay; format: functional, cell-based
[3] = Cytotoxicity against human primary monocytes after 24 hrs by MTT assay; format: functional; conditions: Monocyte
Monocyte [4] = assay: Cytotoxicity against human primary monocytes assessed as reduction in cell viability at 3 uM after 2 hrs by inverse MTT assay; format: functional
Monocyte [5] = assay: Induction of necrosis in human primary monocytes at 3 uM by PE Annexin V and 7-aminoactinomycin staining based flow cytometry; format: functional, cell-based
Monocyte [6] = assay: Induction of cell death in human primary monocytes at 3 uM after 4 hrs by LDH release assay; format: functional, cell-based
Monocyte [7] = assay: Induction of apoptosis in human primary monocytes at 3 uM by PE Annexin V and 7-aminoactinomycin staining based flow cytometry; format: functional, cell-based
Monocyte [8] = assay: Induction of apoptosis in human primary monocytes assessed as nuclear fragmentation at 3 uM after 3 hrs by light microscopy; format: functional, cell-based
HeLa [9] = assay: Cytotoxicity against human HeLa cells assessed as reduction in cell viability at 3 uM after 2 hrs by inverse MTT assay; format: functional, cell-based
HeLa [10] = assay: Cytotoxicity against human HeLa cells at 0.001 to 1 uM after 24 hrs by MTT assay; format: functional, cell-based
Monocyte [11] = assay: Induction of apoptosis in human primary monocytes assessed as apoptotic bodies formation at 3 uM after 3 hrs by light microscopy; format: functional, cell-based
Monocyte [12] = assay: Cytotoxicity against human primary monocytes assessed as reduction in cell viability at 3 uM after 18 hrs by inverse MTT assay; format: functional
HeLa [13] = assay: Cytotoxicity against human HeLa cells assessed as reduction in cell viability at 3 uM after 18 hrs by inverse MTT assay; format: functional, cell-based
Monocyte [14] = assay: Cytotoxicity against human primary monocytes at 0.001 to 1 uM after 24 hrs by MTT assay; format: functional
Monocyte [15] = assay: Cytotoxicity against human primary monocytes assessed as reduction in cell viability at 25 uM after 18 hrs by inverse MTT assay; format: functional
Monocyte [16] = assay: Cytotoxicity against human primary monocytes assessed as reduction in cell viability at 25 uM after 2 to 5 hrs by inverse MTT assay; format: functional
HeLa [17] = assay: Cytotoxicity against human HeLa cells assessed as reduction in cell viability at 25 uM after 2 to 5 hrs by inverse MTT assay; format: functional, cell-based
HeLa [18] = assay: Cytotoxicity against human HeLa cells assessed as reduction in cell viability at 25 uM after 18 hrs by inverse MTT assay; format: functional, cell-based
[19] = Reduction in metabolic activity in mitochondria isolated from human MONO-MAC-6 cells after 3 hrs at 10 uM by MTT assay; format: functional
HeLa [20] = assay: Cytotoxicity against human HeLa cells assessed as reduction in cell viability at 1 uM after 18 hrs by inverse MTT assay; format: functional, cell-based
HeLa [21] = assay: Cytotoxicity against human HeLa cells assessed as reduction in cell viability at 1 uM after 2 to 5 hrs by inverse MTT assay; format: functional, cell-based
Monocyte [22] = assay: Cytotoxicity against human primary monocytes assessed as reduction in cell viability at 1 uM after 2 to 5 hrs by inverse MTT assay; format: functional
Monocyte [23] = assay: Cytotoxicity against human primary monocytes assessed as reduction in cell viability at 1 uM after 18 hrs by inverse MTT assay; format: functional
Monocyte [24] = assay: Induction of necrosis in human primary monocytes at 5 uM after 1 to 3 hrs by light microscopy; format: functional, cell-based
[25] = Cytotoxicity against human primary monocytes assessed as reduction in cell viability at 5 uM after 2 hrs by inverse MTT assay; format: functional, Monocyte
Monocyte [26] = assay: Induction of cell death in human primary monocytes at 0.1 to 10 uM after 4 hrs by LDH release assay; format: functional, cell-based
Monocyte [27] = assay: Induction of morphological changes in human primary monocytes assessed as blebs formation at 5 uM after 1 hr by light microscopy; format: functional, cell-based
Monocyte [28] = assay: Induction of morphological changes in human primary monocytes assessed as plasma membrane rupture at 5 uM after 1 hr by light microscopy; format: functional, cell-based
HeLa [29] = assay: Cytotoxicity against human HeLa cells assessed as reduction in cell viability at 5 uM after 2 hrs by inverse MTT assay; format: functional
[30] = Reduction in metabolic activity in mitochondria isolated from human MONO-MAC-6 cells after 3 hrs up to 10 uM by MTT assay; format: functional; design: scale not given: the % may be the effect or the level left
Monocyte [31] = assay: Induction of necrosis in human primary monocytes at 5 uM by PE Annexin V and 7-aminoactinomycin staining based flow cytometry; format: functional, cell-based
Monocyte [32] = assay: Induction of morphological changes in human primary monocytes assessed as blebs formation at 5 uM after 15 mins by light microscopy; format: functional, cell-based
Monocyte [33] = assay: Induction of apoptosis in human primary monocytes at 5 uM by PE Annexin V and 7-aminoactinomycin staining based flow cytometry; format: functional, cell-based

SMILES: CC[C@H](C)[C@H](NC(=O)[C@H]1CCCCN1C)C(=O)N(C)[C@H](CCc1nc(C(=O)N[C@@H](Cc2ccccc2)C[C@H](C)C(=O)O)cs1)C(C)C
- Activity (Monocyte [1]): inactive
- EC50 (MONO-MAC-6): 0.03 µM

SMILES: COc1cc(C)c(C(=O)O[C@@H]2C[C@@]3(C)C2=C(C=O)[C@@H](O)[C@@H]2CC(C)(C)C[C@@H]23)c(O)c1
- EC50 (THP-1): 2.4 µM
- EC50 (K562): 4.1 µM
- EC50 (HeLa [2]): 12.3 µM
- EC50 (MONO-MAC-6): 2.9 µM
- EC50 [3]: 3.1 µM

SMILES: CN[C@@H]1C[C@H]2O[C@@](C)([C@@H]1OC)n1c3ccccc3c3c4c(c5c6ccccc6n2c5c31)C(=O)NC4
- Activity (Monocyte [4]): inactive
- Activity (Monocyte [5]): inactive
- Activity (Monocyte [6]): Active
- Activity (Monocyte [7]): Active
- Activity (Monocyte [8]): Active
- Activity (HeLa [9]): inactive
- Activity (HeLa [10]): Active
- Activity (Monocyte [11]): Active
- Activity (Monocyte [12]): Active
- Activity (HeLa [13]): Active
- Activity (Monocyte [14]): inactive

SMILES: C[C@@H]1C[C@@H]([C@H](O)CC2CC(=O)NC(=O)C2)C(=O)[C@@H](C)C1
- Activity (Monocyte [15]): Active
- Activity (Monocyte [16]): inactive
- Activity (HeLa [17]): inactive
- Activity (HeLa [18]): Active

SMILES: N#CC(C#N)=NNc1cccc(Cl)c1
- Activity [19]: Active

SMILES: Cc1c2oc3c(C)ccc(C(=O)N[C@@H]4C(=O)N[C@H](C(C)C)C(=O)N5CCC[C@H]5C(=O)N(C)CC(=O)N(C)[C@@H](C(C)C)C(=O)O[C@@H]4C)c3nc-2c(C(=O)N[C@@H]2C(=O)N[C@H](C(C)C)C(=O)N3CCC[C@H]3C(=O)N(C)CC(=O)N(C)[C@@H](C(C)C)C(=O)O[C@@H]2C)c(N)c1=O (I: T[dV]P[Sar][NMeV] / II: T[dV]P[Sar][NMeV]; ester I:1-I:C, II:1-II:C; linker I:N-II:N via Actinocin(9to1))
- Activity (HeLa [20]): Active
- Activity (HeLa [21]): inactive
- Activity (Monocyte [22]): inactive
- Activity (Monocyte [23]): Active

SMILES: COc1cc(O)c(C(=O)O[C@@H]2C[C@]3(C)[C@H]4CC(C)(C)C[C@H]4C=C(C=O)[C@]23O)c(C)c1Cl [ARMILLARIDIN]
- EC50 (THP-1): 4.5 µM
- EC50 (K562): 8.9 µM
- EC50 (HeLa [2]): 9.2 µM
- EC50 (MONO-MAC-6): 5.6 µM
- EC50 [3]: 12.3 µM

SMILES: COc1cc(C)c(C(=O)O[C@@H]2C[C@]3(C)[C@H]4CC(C)(C)C[C@H]4C=C(C=O)[C@]23O)c(O)c1 [ARMILLARIN]
- EC50 (THP-1): 4.8 µM
- EC50 (K562): 23.7 µM
- EC50 (HeLa [2]): 16.7 µM
- EC50 (MONO-MAC-6): 6.6 µM
- EC50 [3]: 43.2 µM

SMILES: COc1cc(O)c(C(=O)O[C@@H]2C[C@@]3(C)C2=C(C=O)[C@@H](O)[C@@H]2CC(C)(C)C[C@@H]23)c(C)c1Cl [ARNAMIAL]
- EC50 (THP-1): 2.9 µM
- EC50 (K562): 2.3 µM
- EC50 (HeLa [2]): 4.9 µM
- EC50 (MONO-MAC-6): 3.2 µM
- EC50 [3]: 3.8 µM

SMILES: Cc1cc(O)cc(O)c1C(=O)O[C@@H]1C[C@@]2(C)C1=C(C=O)[C@@H](O)[C@@H]1CC(C)(C)C[C@@H]12 [DEHYDROARMILLYLORSELLINATE]
- Activity (Monocyte [24]): Active
- Activity [25]: 40%
- Activity (Monocyte [26]): Active
- Activity (Monocyte [27]): Active
- Activity (Monocyte [28]): Active
- EC50 (THP-1): 3 µM
- Activity (HeLa [29]): 40%
- Activity [30]: 50%
- Activity (Monocyte [31]): Active
- EC50 (K562): 5 µM
- EC50 (HeLa [2]): 1.6 µM
- Activity (Monocyte [32]): Active
- EC50 (MONO-MAC-6): 4.2 µM
- Activity (Monocyte [33]): inactive
- EC50 [3]: 2.3 µM

SMILES: COc1cc(O)c(C(=O)O[C@@H]2C[C@]3(C)[C@H]4[C@@H](O)C(C)(C)C[C@@]4(O)C=C(CO)[C@]23O)c(C)c1Cl [MELLEOLIDE D]
- Activity (Monocyte [26]): inactive
- EC50 (THP-1): > 100 µM
- EC50 (K562): > 100 µM
- EC50 (HeLa [2]): > 100 µM
- EC50 (MONO-MAC-6): 48.6 µM
- EC50 [3]: 60.7 µM
